Patent US20040259865A1, “Pyrimidone compounds and pharmaceutical compositions containing the same” (priority 2001, published 2004)
pIC50, pKi: −log10 of the molar value. “And” between values parts separate entries of the source, which are not always exact repeats. Equal values may be shown once.

Assays:
[1] = system: colon tract; assay: Inhibitory effect of adenosine receptor antagonist on suppressing action of NECA on Carbachol-stimulated contraction of the colon tract; parameters: species or system rat; settings: for Contraction (%) Mean: Carbachol 0.3 μM + NECA 1 μM = 0%, Carbachol 0.3 μM = 100%; for Inhibition of the suppressing effect of NECA on the contraction (in words): rat colon tract, Carbachol + NECA
Method: The abdomen of a rat under anesthesia with ether was opened, and from the rectum to the cecum was excised therefrom and soaked in ice-cooled Tyrode solution (containing 136 mM NaCl, 2.7 mM KCl, 0.4 mM NaH2PO4.2H2O, 5.6 mM glucose, 11.9 mM NaHCO3, 1 mM MgCl2.6H2O, 1.8 mM CaCl2). Surrounding connective tissues were removed, and the intestinal tract was cut at positions apart by 1.5 cm from the rectum and by 3 cm from the cecum, to give a colon tract of about 3 cm in full length. Both the terminals of the colon tract were pinched respectively with Serrefines (trade name) to which a string had been connected, and the colon tract with the side of the cecum facing upward was immediately suspended in a Magnus tube filled with Tyrode solution previously warmed at 37° C., and then equilibrated by bubbling with a gas (O2/CO2=95/5). The string connected to the Serrefines (trade name) at the side of the cecum was suspended, and the change in the length of the colon tract was detected with an amplifier for strain pressure (Nihon Kohden Corporation).
In the experiment, 3 samples were used.

[2] = system: SD IGS rats; assay: Defecation-promoting action in rat (Test Example 2); format: in vivo; settings: for The number of fecalpellets/3 rats: 180 minutes after administration; for Defecation-promoting action (in words): Table 4
Method: (§1) SD IGS rats (6-weeks-old, from Charles River) were placed in cages (3 animals/cage) and preliminarily allowed food and water ad libitum and raised for 1 week. On the day of the experiment, their weight was measured, a water-absorbing sheet was placed below each cage, and the animals were fasted but allowed water ad libitum throughout the experiment. Three hours after fasting was initiated, the fecal pellets were recovered from each cage and observed for abnormality before the experiment, and then the compound suspended or dissolved in 0.5% (W/V) methyl cellulose (MC) was orally administered into each rat in a dose of 5 ml/kg. On one hand, 0.5% (W/V) MC only was orally given to the control group. After administering the compound, the rats were returned to the cage provided with anew water-absorbing sheet of known weight, and 180 minutes after the administration, the fecal pellets on the water-absorbing sheet were recovered from each cage, and the external appearance was observed, and the number of fecal pellets was counted. The number of fecal pellets is expressed per each cage (Table 4). After the fecal pellets were recovered, the water-absorbing sheet was weighed, and the weight determined by subtracting the initial weight of the water-adsorbing sheet from the weight after the experiment was regarded as the volume of urine and expressed as the volume of urine per 100 g of the body weight (Table 4).

[3] = Urine volume / diuretic action in rat (Test Example 2); format: in vivo; settings: for Urine Volume (g/100 g body weight): 180 minutes
Method: as §1

[4] = system: SD IGS rats; assay: Contribution of A2b inhibition to defecation-promoting action (Test Example 3); format: in vivo, rat; settings: 180 minutes
Method: as §1
After administering the compounds, the rats were returned to the cage under which a new water-absorbing sheet had been installed, and after 180 minutes, the fecal pellets on the water-absorbing sheet were recovered from each cage, and the outward appearance was observed and the number of fecal pellets was counted. The number of fecal pellets is expressed per cage (Table 5).

[5] = molecular target: T1, human adenosine A1 receptor (Homo sapiens, UniProt P30542); assay: Ability to bind to adenosine A1 receptor (3H-CCPA); format: binding; settings: CHOK1 membranes, Cheng-Prusoff
T1 sequence (P30542 1-326): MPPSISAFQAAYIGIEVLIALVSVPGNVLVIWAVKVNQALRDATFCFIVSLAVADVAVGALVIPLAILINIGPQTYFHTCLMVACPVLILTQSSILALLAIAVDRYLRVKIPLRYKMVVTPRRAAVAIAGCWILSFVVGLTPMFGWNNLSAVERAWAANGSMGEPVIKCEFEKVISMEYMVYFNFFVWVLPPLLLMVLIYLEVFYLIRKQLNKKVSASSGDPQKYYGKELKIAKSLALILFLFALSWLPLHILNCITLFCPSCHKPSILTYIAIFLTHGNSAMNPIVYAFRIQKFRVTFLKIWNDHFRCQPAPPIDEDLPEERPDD
Method: To 0.45 ml of this membrane sample suspension were added 0.025 ml of 60 nM tritium-labeled chlorocyclopentyl adenosine (3H-CCPA, from NEN Ltd.) and 0.025 ml test compound. This mixture was left at 30° C. for 120 minutes, filtered rapidly under suction through a glass fiber filter (GF/B, from Whatman), and immediately washed twice with 5 ml of 50 mM water-cooled Tris-HCl buffer. Thereafter, the glass fiber filter was transferred to a vial, a scintillator was added thereto, and the radioactivity on the filter was measured by a liquid scintillation counter.
Inhibition (%)=[1−{binding in the presence of the test compound-non-specific binding)/(total binding-non-specific binding)}]×100
In the above formula, the total binding means ^3H—CCPA-bound radioactivity in the absence of the test compound; the non-specific binding means ^3H-CCPA-bound radioactivity in the presence of 100 μM RPIA ([R]-[1-methyl-2-phenylethyl]adenosine); and the binding in the presence of the test compound means ^3H-CCPA-bound radioactivity in the […] of the test compound at predetermined concentrations. The inhibition constant (Ki value) in the table was determined from the formula of Cheng-Prusoff.

[6] = molecular target: T2, human adenosine A2b receptor (Homo sapiens, UniProt P29275); assay: Inhibition of NECA-stimulated production of cAMP in adenosine A2b receptor-expressing cells; format: cell-based
T2 construct: expressed in transfected cells; host or cells: CHOK1 cells
T2 sequence (P29275 1-332): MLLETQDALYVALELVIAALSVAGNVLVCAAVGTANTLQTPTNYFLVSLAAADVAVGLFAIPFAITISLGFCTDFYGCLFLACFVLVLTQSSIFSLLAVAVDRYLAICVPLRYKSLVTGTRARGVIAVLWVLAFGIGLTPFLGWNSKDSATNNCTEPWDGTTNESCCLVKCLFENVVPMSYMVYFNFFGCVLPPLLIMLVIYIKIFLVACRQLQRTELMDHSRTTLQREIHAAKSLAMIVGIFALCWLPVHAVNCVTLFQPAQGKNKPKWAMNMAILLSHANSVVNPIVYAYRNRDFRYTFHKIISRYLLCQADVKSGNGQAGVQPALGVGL
Method: CHOK1 cells where a human adenosine A2b receptor had been expressed in excess were plated onto a 24-well plate at a density of 1.5×10^5 cells/well, cultured overnight, and used in the experiment. […] That is, the adhering cells were washed twice with 2 ml/well Krebs-Ringer buffer solution (containing 0.1% BSA; pH 7.4) and pre-incubated for 30 minutes in a volume of 0.5 ml/well. […] After pre-incubation for 15 minutes, the reaction was terminated with 0.1 N HCl in a volume of 300 μl/well. Measurement of intracellular cAMP was carried out using a cAMP enzyme immunoassay kit produced by Amersham.

[7] = system: SD IGS rats; assay: Evaluation of defecation-promoting action (Tables 8 and 10); format: in vivo, rat; settings: 3 mg/kg oral; Table 8, n = 4 cages/group
Text: For example, the defecation-promoting actions of 8-phenyltheophylline (“8-PT” in the table below) and 5-[6-amino-8-(3-fluorophenyl)-9H-9-purinyl]-1-methyl-1,2-di hydro-2-pyridinone (Compound II in the table below) disclosed in Example Number 5 described in WO 2001/2400 were as shown below. 8-PT can be easily produced according to the description of Drug Development Research 47: 45-53 (1999), or is easily available as a commercial product (in this test, it was purchased from Sigma).
That is, SD IGS rats (6- to 7-weeks-old, from Charles River) were placed in cages (3 animals/cage) and preliminarily allowed food and water ad libitum and raised for 1 week. On the day of the experiment, their weight was measured, a water-absorbing sheet was placed below each cage, and the animals were fasted but allowed water ad libitum throughout the experiment. Thee hours after fasting was initiated, the fecal pellets were recovered from each cage and observed for abnormality before the experiment, and then the compound suspended in 0.5% (w/v) methyl cellulose (MC) was orally administered in a dose of 5 ml/kg. On one hand, 0.5% (w/v) MC only was orally given to the control group. After administration of the compound, the rats were returned to the cage provided with a new water-absorbing sheet, and 180 minutes after the administration, the fecal pellets on the water-absorbing sheet were recovered from each cage, and the external appearance was observed, and the number of fecal pellets was counted. The number of fecal pellets is expressed per each cage.

SMILES	Contraction (%) Mean ([1]; antagonist 0.1 μM) [%]	Contraction (%) Mean ([1]; antagonist 0.4 μM) [%]	Contraction (%) Mean ([1]; antagonist 1.4 μM) [%]	Contraction (%) Mean ([1]; antagonist 4.4 μM) [%]	Inhibition of the suppressing effect of NECA on the contraction (in words) [1]	The number of fecalpellets/3 rats ([2]; 3 mg/kg oral) [fecalpellets/3 rats]	The number of fecalpellets/3 rats ([2]; 10 mg/kg oral) [fecalpellets/3 rats]	Diarrhea ([2]; rat, oral)	Defecation-promoting action (in words) ([2]; rat, oral)	Urine Volume (g/100 g body weight) ([3]; 3 mg/kg oral)	Urine Volume (g/100 g body weight) ([3]; 10 mg/kg oral)	Diuretic action (comparison in words) ([3]; rat, oral)	The number of fecalpellets/3 rats ([4]; 3 mg/kg, without KW 6002) [fecalpellets/3 rats]	pKi [5]	pIC50 [6]	The number of fecalpellets/3 rats [7]	The number of fecalpellets/3 rats ([2]; 1 mg/kg oral) [fecalpellets/3 rats]	Urine Volume (g/100 g body weight) ([3]; 1 mg/kg oral)	The number of fecalpellets/3 rats ([4]; KW 3902 0 mg/kg + KW 6002 (1 mg/kg)) [fecalpellets/3 rats]
Nc1ncc(-c2ccncc2)c(-c2ccco2)n1 [Compound I, 4-(2-Furyl)-5-(4-pyridyl)-2-pyrimidinyl amine]	71.5	111.0	122.0	85.9	inhibited the suppressing effect of NECA on the contraction	16.33 ± 1.82	30.00 ± 2.79	did not cause diarrhea	evidently higher defecation-promoting action than the A1-selective antagonist KW3902 or the A2a-selective antagonist KW6002	0.79 ± 0.09	1.23 ± 0.13	weaker diuretic action than the A1-selective antagonist KW3902	34.00 ± 1.00	6.18	8.08	19.75 ± 2.50 fecalpellets/3 rats and 20.75 ± 3.15 fecalpellets/3 rats	–	–	–
CCn1c(=O)c2c(nc(/C=C/c3ccc(OC)c(OC)c3)n2C)n(CC)c1=O [KW 6002]	5.2	1.1	−2.9	−3.9	did not show any inhibitory effect	7.00 ± 0.86	–	–	low defecation-promoting action	0.76 ± 0.05	–	–	–	4.65	–	–	6.67 ± 1.63	0.72 ± 0.07	7.00 ± 1.58
